Source: article PMC6272548, “Synthesis and Antiplatelet Activity of Antithrombotic Thiourea Compounds: Biological and Structure-Activity Relationship Studies” (Molecules, 2015)

What was measured:
Escherichia coli = test: SOS chromotest, spot test; type: cell-based
Description: The SOS chromotest (spot test) was performed according to Quillardet and Hofnung, using Escherichia coli (Table 6) strains PQ35 and PQ37. One hundred microliters of an overnight culture of the E. coli strains are diluted in 5 mL of LB medium and the culture is incubated at 37 °C in a gyratory incubator up to a concentration of 2 × 10^8 bacteria/mL. Fractions of 0.1 mL of the culture are then distributed into test tube with top agar, and the mixture is poured immediately on M63 medium plate. A sample of 10 µL of the thiourea derivatives is spotted onto the center of the plate. After overnight incubation at 37 °C, the presence of a blue ring around a zone of inhibition indicates genotoxic activity.

TXB2 production = test: Measurement of plasma TXB2 levels by EIA in platelet-rich plasma; type: cell-based; settings: Homo sapiens, Platelet
Description: Thromboxane B2 (TXB2), a stable TXA2 metabolite, is widely used as a prognostic risk marker of platelet activation in cardiovascular disease, which is closely related to COX-1 and Thromboxane Synthetase activity. Thus, the plasma levels of this metabolite were measured using an enzyme immunoassay (EIA) as described in the Experimental Section.
Plasma samples containing 100 μM of each thiourea with antiplatelet activity were used to determine the concentrations of thromboxane B2, an index of in vitro COX-1 activity. Briefly, 10 μL of arachidonic acid (500 μM) were added to platelet-rich plasma samples containing each active derivative (100 μM) under stir conditions. After five minutes the suspensions were mixed with 3 μL Indomethacin (10 mM) stop-solution. By sonication for 15 min, platelets were disrupted, and the resulting homogenates were centrifuged at 2000 g for 10 min to allow complete release of TXB2. Plasma levels of TXB2 were measured in duplicate by competitive immunoassay using commercially available kits from EIA Cayman (TXB2 EIA Kit, Cayman Chemical Co, Ann Arbor, MI, USA) according to the manufacturer’s instructions. A threshold of 25.75 ng/mL was defined as control plasma levels of TXB2 after platelet disrupture.

PGE2 production = test: Measurement of plasma PGE2 levels by EIA in platelet-rich plasma; type: cell-based; settings: human platelet-rich plasma
Description: The stable direct metabolite of PGE2, 13,14-dihydro-15-keto-Prostaglandin E2, is a known marker of the COX-1 activity. By the measurement of total levels of this PGE2 metabolite in human platelet-rich plasma, we evaluated the feasibility of antiplatelet N,N'-disubstituted thioureas to inhibit COX-1 activity in healthy platelets (Table 2).
Plasma samples containing 100 μM of each thiourea with antiplatelet activity were used to determine the concentrations of […], an index of in vitro COX-1 activity. Briefly, ozagrel (3 μL, 100 μM) were added to stop TXS activity and the aggregation were triggered with 10 μL of arachidonic acid (500 μM) in PRP samples containing each active derivative (100 μM) under stir conditions. After five minutes the suspensions were mixed with indomethacin (3 μL, 10 mM) stop-solution. By sonication for 1 min, platelets were disrupted and purification step were performed according to the manufacturer’s instructions (Cayman Chemical Co.). Plasma levels of PGE2 were measured in duplicate by competitive immunoassay using commercially available kits for EIA (PGE2 EIA Kit, Cayman Chemical Co.) according to the manufacturer’s instructions. A threshold of 25.75 ng/mL was defined as control plasma levels of PGE2 after platelet disrupture.

[1] = Hemolysis assay (erythrocyte lysis); type: cell-based, human; settings: human, erythrocyte suspension, pH 7.4; 3 h incubation; derivatives and ASA at 100 μM, TRITON at 1%
Description: Healthy erythrocytes were washed three times with PBS (pH 7.4) by centrifugation and suspended in the same buffer. All derivatives were incubated with the erythrocyte suspension for 3 h at 37 °C. The release of hemoglobin was determined by monitoring the optical density of the supernatant at 540 nm. The experiments were performed in triplicate and complete hemolysis (positive control) was determined using 1% Triton X-100. Hemolysis less than 10% indicated good hemocompatibility and non-toxicity of the molecules tested.

Salmonella typhimurium = test: Reverse mutagenesis to histidine prototrophy (Ames test), spot test; settings: without metabolic activation; 10 µM, 100 µM and 500 µM
Description: This assay was performed as described by Maron and Ames, using the histidine Salmonella typhimurium auxotroph mutant strains TA97, TA98, TA100 and the […] TA102 (Table 5).

## CC(=O)Oc1ccccc1C(=O)O [Aspirin, acetylsalicylic acid, reference compound]
Escherichia coli
  SOS Chromotest E. coli PQ35: -
TXB2 production
  inhibition at 100 µM: 78.5 ± 5%
PGE2 production
  inhibition at 100 µM: 47.5 ± 1.4%
[1]
  hemolysis at 3 h, 100 µM: 2%
Salmonella typhimurium
  Ames Test S. typhimurium TA97: -
  Ames Test S. typhimurium TA98: -
  Ames Test S. typhimurium TA100: -
  Ames Test S. typhimurium TA102: -
